Test results: article PMC10870298, “Rational Design of Antifungal Peptides Based on the γ-Core Motif of a Neosartorya (Aspergillus) fischeri Antifungal Protein to Improve Structural Integrity, Efficacy, and Spectrum” (ACS Omega, 2024)
Where two headings read alike, the source gives them in different places. Residues, ends and D or L forms follow the SMILES beside them. *: point of attachment. tBu = CC(C)(C)*

Tests used:
[1] = system: A. fumigatus CBS 101355; type: cell-based, Aspergillus fumigatus
Description: (§1) The lyophilized and stored peptides were dissolved in sterile ddH2O (5 mg mL^–1). Then, half of the volume of the peptide stock was tested for antifungal activity and stored at −20 °C until RP-HPLC and ECD analyses. This peptide sample is termed the −20 °C sample. The other half volume of the stock was stored at 4 °C for 7 days, tested for antifungal activity, and stored at −20 °C until RP-HPLC and ECD analyses. This peptide sample is referred to as the 4 °C sample.
(§2) MICs of NFAP γ-core peptide derivatives were determined against C. albicans SC5314 and A. fumigatus CBS 101355. These fungi were maintained on yeast peptone dextrose agar (YPD: 10 g L^–1 yeast extract, 20 g L^–1 peptone, 20 g L^–1D-glucose, 15 g L^–1 agar) and malt extract agar (MEA, Sigma-Aldrich) slants at 4 °C, respectively. Susceptibility tests were performed in low cationic medium (LCM: 5 g L^–1D-glucose, 0.25 g L^–1 yeast extract, 0.125 g L^–1 peptone) according to Tóth et al. (2018)[16] and Tóth et al. (2020)[19] for yeasts and molds, respectively, with slight modifications. Briefly, 100 μL NFAP γ-core peptide (0.39–400 μg mL^–1 in two-fold serial dilutions in LCM) was mixed with 100 μL of 2 × 10^5 mL^–1 mid-log phase C. albicans cells or freshly harvested A. fumigatus conidia in LCM in a flat-bottom 96-well microtiter plate (TC Plate 96 Well, Suspension, F; Sarstedt, Nümbrecht, Germany). A mixture of 100 μL of medium (LCM) without NFAP γ-core peptide derivative and 100 μL of cell or conidium suspension served as the untreated growth control, whereas 200 μL of LCM was used for background calibration. The plates were incubated statically for 48 h (C. albicans) or 72 h (A. fumigatus) at 30 °C. The absorbance (OD620) of each well was measured after shaking for 5 s using a microtiter plate reader (SPECTROstar Nano; BMG Labtech, Ortenberg, Germany). The absorbance of the untreated control was taken as 100% growth for the MIC calculation. MIC was defined as the lowest peptide concentration that reduced fungal growth by […] compared with the untreated control. Susceptibility tests were performed in two technical replicates and were repeated at least two times.

[2] = system: C. albicans SC5314; type: cell-based, Candida albicans; settings: SC5314, 48 h
Description: as §1, §2

[3] = system: C. albicans SC5314; test: Cell-killing efficacy: growth kinetics of high-density culture and drop viability on YPD agar; type: cell-based, Candida albicans; settings: for growth of high-density C. albicans culture: OD600 = 0.2 mid-log cells, LCM, 30 °C, 24 h; for proportion of cells able to multiply (culture drops on YPD agar after treatment): 24 h treatment at 30 °C, then 5 μL drops on YPD agar 24 h at 30 °C
Description: Compared with MIC determination, monitoring the growth kinetics of high-density cell cultures in the presence of various peptide concentrations allows for detailed insight into the cell-killing efficacy over time and how cysteine modifications influence it. Therefore, the growth of high-density C. albicans cell culture (OD600 = 0.2) was monitored in the presence of 0.5× MIC, 1× MIC, and 2× MIC of the NFAP γ-core peptides.
The experiment was conducted in a flat-bottom 96-well microtiter plate (TC Plate 96 Well, Suspension, F; Sarstedt, Nümbrecht, Germany): 100 μL of OD600 = 0.2 mid-log phase cells prepared in LCM were mixed with 100 μL of 1× MIC, 2× MIC, or 4× MIC of the peptide diluted in LCM. The plates were incubated statically at 30 °C for 24 h. The absorbance (OD600) of each well was then measured after shaking for 5 s every hour using a microtiter plate reader (BioTek Synergy HTX Multi-Mode Microplate Reader; Agilent Technologies, Santa Clara, CA, USA). Untreated cells (100 μL LCM mixed with 100 μL OD600 = 0.2 mid-log phase cells prepared in LCM) served as growth controls. To examine the viability of the treated C. albicans cells, 5–5 μL cultures from each well were dropped onto the YPD agar plate after the last OD600 measurement and allowed to dry before incubation at 30 °C for 24 h. The plates were photographed (Versa Doc Imaging System 4000 MP; Bio-Rad, Hercules, CA, USA). These experiments were repeated two times, involving three technical replicates.

[4] = system: plant pathogenic filamentous fungi; settings: previous studies; cited from earlier work
Description: Presumably, these peptides exert an antifungal mechanism through membrane disruption,[17] and the high positive net charge supports this mechanism. Additionally, neither hydrop ...

[5] = system: sheep blood; settings: cited from earlier work
Description: (§3) The clinical application of antimicrobial peptides is limited by their potential hemolytic activity, toxicity, immunogenicity, and other side effects.[27] […] Herein, we investigated how cysteine–serine substitution(s) and S-tert-butylation of these peptides influence hemolytic activ ...

[6] = system: human cell lines (monocytes, colonic epithelial cells, keratinocytes); settings: cited from earlier work
Description: as §3

[7] = Structural integrity (disulfide bridge formation on storage) by RP-HPLC; type: physicochemical
Description: The half volume of the dissolved lyophilized peptides was promptly stored at −20 °C for 7 days. The other half volume of these peptides was stored at 4 °C for 7 days (oxidative condition) and then at −20 °C until RP-HPLC and electronic circular dichroism (ECD) analyses were performed. Herein, these peptide samples are referred to as −20 and 4 °C samples, respectively.
as §1
Crude peptides were purified by semipreparative RP-HPLC using a solvent system of (A) 0.1% TFA and (B) 80% acetonitrile, 0.1% TFA, and a linear gradient from 0 to 30% (B) in 60 min. Purification was performed on a Phenomenex Jupiter Proteo 90 Å column (250 × 10 mm) using a Shimadzu HPLC apparatus (Berlin, Germany). Absorbance was detected at 220 nm. Purity was evaluated by analytical RP-HPLC using a Phenomenex Luna 10 μ C18 100 A column and an Agilent 1100 HPLC instrument (Palo Alto, CA, USA).

[8] = 1 and 2× MIC, OD600 hourly, repeated two times, three technical replicates
[9] = 4 °C sample: 5 mg mL^–1 in sterile ddH2O stored at 4 °C for 7 days (oxidative condition)

Compound | MIC ([1]; CBS 101355, 72 h) | MIC [2] | antifungal activity [4] | proportion of cells able to multiply (culture drops on YPD agar after treatment) ([3]; 2× MIC) | growth of high-density C. albicans culture ([3]; 2× MIC) | oxidation / disulfide bridge formation (in words) [7, 9] | further results
Ac-EYKGKSKTKKNKSK-NH2 [NFAPimpγ^C6S,C13S] | >200 μg mL^–1 | 50 μg mL^–1 |  |  |  |  | growth of high-density C. albicans culture [3, 8]: could not fully inhibit the growth
CC[C@H](C)[C@H](NC(=O)[C@H](CCCCN)NC(=O)[C@H](CS)NC(=O)[C@H](CCCCN)NC(=O)[C@@H](NC(=O)[C@H](CCCCN)NC(=O)[C@@H](NC(=O)[C@H](CCC(=O)O)NC(C)=O)[C@@H](C)CC)[C@@H](C)CC)C(=O)N[C@@H](CCCCN)C(=O)N[C@@H](CCCCN)C(=O)N[C@H](C(=O)N[C@@H](CCCCN)C(=O)N[C@@H](CS)C(=O)N[C@@H](CCCCN)C(N)=O)[C@@H](C)CC [NFAPimpγGZ] (Ac-EIKIKCKIKKIKCK-NH2) | 25 μg mL^–1 | 12.5 μg mL^–1 | effectively inhibit the growth | highly reduce the proportion of cells able to multiply | total or high growth inhibitions | fully oxidized to the cyclic form | hemolysis [5]: did not cause hemolysis; toxicity to various human cell lines [6]: impaired the viability of keratinocytes at higher concentrations; growth of high-density C. albicans culture ([3]; 1× MIC): allowed the multiplication of C. albicans cells within 24 h; share of the peptide with intermolecular disulfide bridges (in words) ([7]; –20 °C sample): one-third; share of the peptide with intramolecular disulfide bridges (in words) ([7]; –20 °C sample): approximately one-third
CC[C@H](C)[C@H](NC(=O)[C@H](CCCCN)NC(=O)[C@H](CSC(C)(C)C)NC(=O)[C@H](CCCCN)NC(=O)[C@@H](NC(=O)[C@H](CCCCN)NC(=O)[C@@H](NC(=O)[C@H](CCC(=O)O)NC(C)=O)[C@@H](C)CC)[C@@H](C)CC)C(=O)N[C@@H](CCCCN)C(=O)N[C@@H](CCCCN)C(=O)N[C@H](C(=O)N[C@@H](CCCCN)C(=O)N[C@@H](CSC(C)(C)C)C(=O)N[C@@H](CCCCN)C(N)=O)[C@@H](C)CC [NFAPimpγGZ^S-tBu] (Ac-EIKIKC(tBu)KIKKIKC(tBu)K-NH2) | 25 μg mL^–1 | 25 μg mL^–1 |  | highly reduce the proportion of cells able to multiply |  |  | growth of high-density C. albicans culture ([3]; 1× MIC): inhibited the growth
CC(=O)N[C@@H](CCC(=O)O)C(=O)N[C@@H](Cc1ccc(O)cc1)C(=O)N[C@@H](CCCCN)C(=O)NCC(=O)N[C@@H](CCC(=O)O)C(=O)N[C@@H](CS)C(=O)N[C@@H](Cc1ccccc1)C(=O)N[C@H](C(=O)N[C@@H](CCCCN)C(=O)N[C@@H](CC(=O)O)C(=O)N[C@@H](CC(N)=O)C(=O)N[C@H](C(=O)N[C@@H](CS)C(=O)N[C@@H](CCCCN)C(N)=O)[C@@H](C)O)[C@@H](C)O [NFAPγ] (Ac-EYKGECFTKDNTCK-NH2) | > 200 μg mL^–1 | > 200 μg mL^–1 | did not exhibit antifungal activity |  |  | most of this peptide formed intramolecular, whereas a smaller part formed an intermolecular disulfide bond | 
Ac-EYKGKCKTKKNKSK-NH2 [NFAPimpγ^C13S] | >200 μg mL^–1 | 50 μg mL^–1 |  |  |  |  | growth of high-density C. albicans culture [3, 8]: could not fully inhibit the growth; share of the peptide in dimer form [7, 9]: approximately 60%
CC(=O)N[C@@H](CCC(=O)O)C(=O)N[C@@H](Cc1ccc(O)cc1)C(=O)N[C@@H](CCCCN)C(=O)NCC(=O)N[C@@H](CCCCN)C(=O)N[C@@H](CSC(C)(C)C)C(=O)N[C@@H](CCCCN)C(=O)N[C@H](C(=O)N[C@@H](CCCCN)C(=O)N[C@@H](CCCCN)C(=O)N[C@@H](CC(N)=O)C(=O)N[C@@H](CCCCN)C(=O)N[C@@H](CSC(C)(C)C)C(=O)N[C@@H](CCCCN)C(N)=O)[C@@H](C)O [NFAPimpγ^S-tBu] (Ac-EYKGKC(tBu)KTKKNKC(tBu)K-NH2) | 25 μg mL^–1 | 50 μg mL^–1 |  |  |  |  | MIC ([1]; storage sample not specified, LCM, 72 h at 30 °C): 25 μg mL^–1; growth of high-density C. albicans culture ([3]; 0.5× MIC, compared with unmodified NFAPimpγ): extended the time when the C. albicans culture started to multiply intensively; proportion of cells able to multiply (culture drops on YPD agar after treatment) ([3]; 1–2× MIC): highly reduce the proportion of cells able to multiply
Ac-EIKIKSKIKKIKSK-NH2 [NFAPimpγGZ^C6S,C13S] | 50 μg mL^–1 | 25 μg mL^–1 |  |  | could not inhibit the growth |  | 
CC(=O)N[C@@H](CCC(=O)O)C(=O)N[C@@H](Cc1ccc(O)cc1)C(=O)N[C@@H](CCCCN)C(=O)NCC(=O)N[C@@H](CCCCN)C(=O)N[C@@H](CS)C(=O)N[C@@H](CCCCN)C(=O)N[C@H](C(=O)N[C@@H](CCCCN)C(=O)N[C@@H](CCCCN)C(=O)N[C@@H](CC(N)=O)C(=O)N[C@@H](CCCCN)C(=O)N[C@@H](CS)C(=O)N[C@@H](CCCCN)C(N)=O)[C@@H](C)O [NFAPimpγ] (Ac-EYKGKCKTKKNKCK-NH2) | >200 μg mL^–1 |  | effectively inhibit the growth | highly reduce the proportion of cells able to multiply |  | total amount of the peptide was cyclized | hemolysis [5]: did not cause hemolysis; toxicity to various human cell lines [6]: not toxic; share of the peptide with intramolecular disulfide bridges (cyclic form) ([7]; –20 °C sample: 5 mg mL^–1 in sterile ddH2O stored at −20 °C for 7 days): approximately 60%
Ac-EIKIKCKIKKIKSK-NH2 [NFAPimpγGZ^C13S] | 50 μg mL^–1 | 25 μg mL^–1 |  |  | total or high growth inhibitions |  | 
